Reference: patent publication US20090018134A1, “Compounds - 945” (AstraZeneca AB, priority 2007, published 2009)

target: T1, mTOR (Homo sapiens, UniProt P42345); assay: In Vitro mTOR Kinase Assay (Echo), Test (a)(ii); format: biochemical; details: table of enzyme assay Test (a)(ii); read-out: Test (a)(ii) IC50
T1 construct: FLAG; made in house
How it was run: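 FLAG-tagged truncated mTOR (residues 1362-2549), expressed in HEK293 and purified via the FLAG tag, phosphorylated a biotinylated peptide over 2 hours at room temperature. EDTA stopped the reaction. Phospho-T389 was detected overnight by AlphaScreen using the p70 S6K T389 antibody with Protein A/streptavidin beads; IC50 reported.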

T1 sequence (P42345 1362-2549): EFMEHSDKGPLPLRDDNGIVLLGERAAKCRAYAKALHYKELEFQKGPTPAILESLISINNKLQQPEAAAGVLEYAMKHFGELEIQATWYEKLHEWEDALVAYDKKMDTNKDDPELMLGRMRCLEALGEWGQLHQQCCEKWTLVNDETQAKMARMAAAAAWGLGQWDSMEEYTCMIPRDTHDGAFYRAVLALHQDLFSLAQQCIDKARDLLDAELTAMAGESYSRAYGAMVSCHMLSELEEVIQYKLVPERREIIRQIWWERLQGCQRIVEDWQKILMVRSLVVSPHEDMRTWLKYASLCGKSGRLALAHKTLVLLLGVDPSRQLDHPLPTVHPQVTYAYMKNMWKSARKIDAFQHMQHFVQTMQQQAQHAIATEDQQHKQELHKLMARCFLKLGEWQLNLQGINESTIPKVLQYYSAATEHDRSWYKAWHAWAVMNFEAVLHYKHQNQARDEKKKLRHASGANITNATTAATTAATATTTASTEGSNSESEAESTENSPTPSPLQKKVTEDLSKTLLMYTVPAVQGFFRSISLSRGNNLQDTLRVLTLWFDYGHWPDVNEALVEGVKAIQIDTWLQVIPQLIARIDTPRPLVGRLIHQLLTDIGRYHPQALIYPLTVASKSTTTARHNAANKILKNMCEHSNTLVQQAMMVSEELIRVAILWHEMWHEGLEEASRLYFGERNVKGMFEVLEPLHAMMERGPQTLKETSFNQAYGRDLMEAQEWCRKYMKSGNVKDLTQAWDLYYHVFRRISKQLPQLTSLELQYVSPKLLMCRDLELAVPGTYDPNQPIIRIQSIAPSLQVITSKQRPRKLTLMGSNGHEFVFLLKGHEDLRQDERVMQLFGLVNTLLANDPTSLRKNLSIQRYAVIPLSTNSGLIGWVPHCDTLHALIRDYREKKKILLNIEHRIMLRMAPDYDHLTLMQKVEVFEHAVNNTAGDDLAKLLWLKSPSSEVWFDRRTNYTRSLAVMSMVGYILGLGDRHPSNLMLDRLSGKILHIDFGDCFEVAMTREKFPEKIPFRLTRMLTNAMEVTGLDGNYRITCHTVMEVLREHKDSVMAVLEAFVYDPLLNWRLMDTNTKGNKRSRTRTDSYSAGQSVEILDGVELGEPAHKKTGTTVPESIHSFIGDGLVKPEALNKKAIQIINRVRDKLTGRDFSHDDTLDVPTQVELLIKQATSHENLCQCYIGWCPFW

| IC50 | Structure (SMILES) |
| --- | --- |
| 16.3 nM | CNC(=O)Nc1ccc(-c2nc(N3CCOC[C@@H]3C)cc(C3(S(C)(=O)=O)CCNCC3)n2)cc1 [Example 20a, 3-methyl-1-[4-[4-[(3S)-3-methylmorpholin-4-yl]-6-(4-methylsulfonylpiperidin-4-yl)pyrimidin-2-yl]phenyl]urea] |
| 874 nM | C[C@H]1COCCN1c1cc(C2(S(C)(=O)=O)CCNCC2)nc(-c2ccc(NC(=O)NCCN(C)C)cc2)n1 [Example 20b, 3-(2-dimethylaminoethyl)-1-[4-[4-[(3S)-3-methylmorpholin-4-yl]-6-(4-methylsulfonylpiperidin-4-yl)pyrimidin-2-yl]phenyl]urea] |
| 5.59 nM | C[C@H]1COCCN1c1cc(C2(S(C)(=O)=O)CCNCC2)nc(-c2ccc(NC(=O)NCCO)cc2)n1 [Example 20c, 3-(2-hydroxyethyl)-1-[4-[4-[(3S)-3-methylmorpholin-4-yl]-6-(4-methylsulfonylpiperidin-4-yl)pyrimidin-2-yl]phenyl]urea] |
| 13.3 nM | C[C@H]1COCCN1c1cc(C2(S(C)(=O)=O)CCNCC2)nc(-c2ccc(NC(=O)Nc3cnn(C)c3)cc2)n1 [Example 20d, 1-[4-[4-[(3S)-3-methylmorpholin-4-yl]-6-(4-methylsulfonylpiperidin-4-yl)pyrimidin-2-yl]phenyl]-3-(1-methylpyrazol-4-yl)urea] |
| 37.8 nM | CNC(=O)Nc1ccc(-c2nc(N3CCOC[C@@H]3C)cc(C3(S(=O)(=O)C4CC4)CCNCC3)n2)cc1 [Example 21a, 1-[4-[4-(4-cyclopropylsulfonylpiperidin-4-yl)-6-[(3S)-3-methylmorpholin-4-yl]pyrimidin-2-yl]phenyl]-3-methylurea] |
| 13.3 nM | C[C@H]1COCCN1c1cc(C2(S(=O)(=O)C3CC3)CCNCC2)nc(-c2ccc(NC(=O)NCCO)cc2)n1 [Example 21b, 1-[4-[4-(4-cyclopropylsulfonylpiperidin-4-yl)-6-[(3S)-3-methylmorpholin-4-yl]pyrimidin-2-yl]phenyl]-3-(2-hydroxyethyl)urea] |
| 23.4 nM | C[C@H]1COCCN1c1cc(C2(S(=O)(=O)C3CC3)CCNCC2)nc(-c2ccc(NC(=O)Nc3cnn(C)c3)cc2)n1 [Example 21c, 1-[4-[4-(4-cyclopropylsulfonylpiperidin-4-yl)-6-[(3S)-3-methylmorpholin-4-yl]pyrimidin-2-yl]phenyl]-3-(1-methylpyrazol-4-yl)urea] |
| 4.59 nM | CNC(=O)Nc1ccc(-c2nc(N3CCOC[C@@H]3C)cc(C3(S(C)(=O)=O)CCOCC3)n2)cc1 [Example 23a, 3-methyl-1-[4-[4-[(3S)-3-methylmorpholin-4-yl]-6-(4-methylsulfonyloxan-4-yl)pyrimidin-2-yl]phenyl]urea] |
| 197 nM | C[C@H]1COCCN1c1cc(C2(S(C)(=O)=O)CCOCC2)nc(-c2ccc(NC(=O)NCCN(C)C)cc2)n1 [Example 23b, 3-(2-dimethylaminoethyl)-1-[4-[4-[(3S)-3-methylmorpholin-4-yl]-6-(4-methylsulfonyloxan-4-yl)pyrimidin-2-yl]phenyl]urea] |

The next lines start with the molecule.

| Structure (SMILES) | IC50 |
| --- | --- |
| C[C@H]1COCCN1c1cc(C2(S(=O)(=O)C(C)(C)C)CC2)nc(-c2ccc(NC(=O)NCCCO)cc2)n1 [Example 18l, 1-[4-[4-(1-tert-butylsulfonylcyclopropyl)-6-[(3S)-3-methylmorpholin-4-yl]pyrimidin-2-yl]phenyl]-3-(3-hydroxypropyl)urea] | 10.2 nM |
| C[C@H]1COCCN1c1cc(C2(S(=O)(=O)C(C)(C)C)CC2)nc(-c2ccc(NC(=O)Nc3cnn(C)c3)cc2)n1 [Example 18m, 1-[4-[4-(1-tert-butylsulfonylcyclopropyl)-6-[(3S)-3-methylmorpholin-4-yl]pyrimidin-2-yl]phenyl]-3-(1-methylpyrazol-4-yl)urea] | 3.15 nM |
| C[C@H]1COCCN1c1cc(C2(S(=O)(=O)c3cc(F)cc(F)c3)CC2)nc(-c2ccc(NC(=O)NC3CC3)cc2)n1 [Example 19, 3-Cyclopropyl-1-[4-[4-[1-(3,5-difluorophenyl)sulfonylcyclopropyl]-6-[(3S)-3-methylmorpholin-4-yl]pyrimidin-2-yl]phenyl]urea] | 1.31 nM |
| C[C@H]1COCCN1c1cc(C2(S(=O)(=O)c3cc(F)cc(F)c3)CC2)nc(-c2ccc(NC(=O)NC3CCC3)cc2)n1 [Example 19a, 3-cyclobutyl-1-[4-[4-[1-(3,5-difluorophenyl)sulfonylcyclopro-pyl]-6-[(3S)-3-methylmorpholin-4-yl]pyrimidin-2-yl]phenyl]urea] | 4.25 nM |
| C[C@H]1COCCN1c1cc(C2(S(=O)(=O)c3cc(F)cc(F)c3)CC2)nc(-c2ccc(NC(=O)Nc3ccccn3)cc2)n1 [Example 19b, 1-[4-[4-[1-(3,5-difluorophenyl)sulfonylcyclopro-pyl]-6-[(3S)-3-methylmorpholin-4-yl]pyrimidin-2-yl]phenyl]-3-pyridin-2-ylurea] | 1.19 nM |
| CC(C)CNC(=O)Nc1ccc(-c2nc(N3CCOC[C@@H]3C)cc(C3(S(=O)(=O)c4cc(F)cc(F)c4)CC3)n2)cc1 [Example 19c, 1-[4-[4-[1-(3,5-difluorophenyl)sulfonylcyclopro-pyl]-6-[(3S)-3-methylmorpholin-4-yl]pyrimidin-2-yl]phenyl]-3-(2-methylpropyl)urea] | 21.4 nM |
| CC(C)NC(=O)Nc1ccc(-c2nc(N3CCOC[C@@H]3C)cc(C3(S(=O)(=O)c4cc(F)cc(F)c4)CC3)n2)cc1 [Example 19d, 1-[4-[4-[1-(3,5-difluorophenyl)sulfonylcyclopro-pyl]-6-[(3S)-3-methylmorpholin-4-yl]pyrimidin-2-yl]phenyl]-3-propan-2-ylurea] | 3.18 nM |
| CCNC(=O)Nc1ccc(-c2nc(N3CCOC[C@@H]3C)cc(C3(S(=O)(=O)c4cc(F)cc(F)c4)CC3)n2)cc1 [Example 19e, 1-[4-[4-[1-(3,5-difluorophenyl)sulfonylcyclopro-pyl]-6-[(3S)-3-methylmorpholin-4-yl]pyrimidin-2-yl]phenyl]-3-ethylurea] | 1.35 nM |
| C[C@H]1COCCN1c1cc(C2(S(=O)(=O)c3cc(F)cc(F)c3)CC2)nc(-c2ccc(NC(=O)NCCN(C)C)cc2)n1 [Example 19f, 1-[4-[4-[1-(3,5-difluorophenyl)sulfonylcyclopro-pyl]-6-[(3S)-3-methylmorpholin-4-yl]pyrimidin-2-yl]phenyl]-3-(2-dimethylaminoethyl)urea] | 80.4 nM |
| C[C@H]1COCCN1c1cc(C2(S(=O)(=O)c3cc(F)cc(F)c3)CC2)nc(-c2ccc(NC(=O)NCCO)cc2)n1 [Example 19g, 1-[4-[4-[1-(3,5-difluorophenyl)sulfonylcyclopro-pyl]-6-[(3S)-3-methylmorpholin-4-yl]pyrimidin-2-yl]phenyl]-3-(2-hydroxyethyl)urea] | 0.274 nM |
| CCCNC(=O)Nc1ccc(-c2nc(N3CCOC[C@@H]3C)cc(C3(S(=O)(=O)c4cc(F)cc(F)c4)CC3)n2)cc1 [Example 19h, 1-[4-[4-[1-(3,5-difluorophenyl)sulfonylcyclopro-pyl]-6-[(3S)-3-methylmorpholin-4-yl]pyrimidin-2-yl]phenyl]-3-propylurea] | 2.46 nM |
| CNC(=O)Nc1ccc(-c2nc(N3CCOC[C@@H]3C)cc(C3(S(=O)(=O)c4cc(F)cc(F)c4)CC3)n2)cc1 [Example 19i, 1-[4-[4-[1-(3,5-difluorophenyl)sulfonylcyclopro-pyl]-6-[(3S)-3-methylmorpholin-4-yl]pyrimidin-2-yl]phenyl]-3-methylurea] | 1.52 nM |
| C[C@H]1COCCN1c1cc(C2(S(=O)(=O)c3cc(F)cc(F)c3)CC2)nc(-c2ccc(NC(=O)Nc3ccc(C(F)(F)F)cc3)cc2)n1 [Example 19j, 1-[4-[4-[1-(3,5-difluorophenyl)sulfonylcyclopro-pyl]-6-[(3S)-3-methylmorpholin-4-yl]pyrimidin-2-yl]phenyl]-3-[4-(trifluoromethyl)phenyl]urea] | 19.9 nM |
| C[C@H]1COCCN1c1cc(C2(S(=O)(=O)c3cc(F)cc(F)c3)CC2)nc(-c2ccc(NC(=O)NC(C)(C)CO)cc2)n1 [Example 19k, 1-[4-[4-[1-(3,5-difluorophenyl)sulfonylcyclopro-pyl]-6-[(3S)-3-methylmorpholin-4-yl]pyrimidin-2-yl]phenyl]-3-(1-hydroxy-2-methylpropan-2-yl)urea] | 4.15 nM |
| C[C@H]1COCCN1c1cc(C2(S(=O)(=O)c3cc(F)cc(F)c3)CC2)nc(-c2ccc(NC(=O)NCCCO)cc2)n1 [Example 19l, 1-[4-[4-[1-(3,5-difluorophenyl)sulfonylcyclopro-pyl]-6-[(3S)-3-methylmorpholin-4-yl]pyrimidin-2-yl]phenyl]-3-(3-hydroxypropyl)urea] | 1.52 nM |
| C[C@H]1COCCN1c1cc(C2(S(=O)(=O)c3cc(F)cc(F)c3)CC2)nc(-c2ccc(NC(=O)Nc3cnn(C)c3)cc2)n1 [Example 19m, 1-[4-[4-[1-(3,5-difluorophenyl)sulfonylcyclopro-pyl]-6-[(3S)-3-methylmorpholin-4-yl]pyrimidin-2-yl]phenyl]-3-(1-methylpyrazol-4-yl)urea] | 0.944 nM |
| C[C@H]1COCCN1c1cc(C2(S(C)(=O)=O)CCNCC2)nc(-c2ccc(NC(=O)NC3CC3)cc2)n1 [Example 20, 3-Cyclopropyl-1-[4-[4-[(3S)-3-methylmorpholin-4-yl]-6-(4-methylsulfonylpiperidin-4-yl)pyrimidin-2-yl]phenyl]urea] | 12.8 nM |
| C[C@H]1COCCN1c1cc(C2(S(=O)(=O)C3CC3)CCNCC2)nc(-c2ccc(NC(=O)NC3CC3)cc2)n1 [Example 21, 3-Cyclopropyl-1-[4-[4-(4-cyclopropylsulfonylpiperidin-4-yl)-6-[(3S)-3-methylmorpholin-4-yl]pyrimidin-2-yl]phenyl]urea] | 25.3 nM |
| C[C@H]1COCCN1c1cc(C2(S(=O)(=O)c3cc(F)cc(F)c3)CCN(Cc3ccccc3)CC2)nc(-c2ccc(NC(=O)NC3CC3)cc2)n1 [Example 22, 1-[4-[4-[1-Benzyl-4-(3,5-difluorophenyl)sulfonylpiperidin-4-yl]-6-[(3S)-3-methylmorpholin-4-yl]pyrimidin-2-yl]phenyl]-3-cyclopropylurea] | 503 nM |
